As a reminder, the Ki is a measure of affinity in units of concentration, obtained from inhibition or displacement.

In one assay the target is T1, 5-HT2A receptors (Rattus norvegicus, UniProt P14842).
T1 construct: (b) 5-HT2A receptors, [^3H]ketanserin, rat cerebral cortex; from tissue; host or cells: rat cerebral cortex
The assay is described as follows: Radioligand displacement, 5-HT2A receptors, [3H]ketanserin. Format: binding. The following applies: rat cerebral cortex, read-out: Ki ± E.E. 5-HT2A. For orientation: Loss of bound radioactivity is the signal in a displacement assay; it reports binding, not function.

A further assay concerns the target T2, 5-HT3 receptors (Rattus norvegicus, UniProt P35563).
T2 construct: (c) 5-HT3 receptors, [^3H]LY 278584, rat cerebral cortex; from tissue; host or cells: rat cerebral cortex
T2 sequence (P35563 24-483): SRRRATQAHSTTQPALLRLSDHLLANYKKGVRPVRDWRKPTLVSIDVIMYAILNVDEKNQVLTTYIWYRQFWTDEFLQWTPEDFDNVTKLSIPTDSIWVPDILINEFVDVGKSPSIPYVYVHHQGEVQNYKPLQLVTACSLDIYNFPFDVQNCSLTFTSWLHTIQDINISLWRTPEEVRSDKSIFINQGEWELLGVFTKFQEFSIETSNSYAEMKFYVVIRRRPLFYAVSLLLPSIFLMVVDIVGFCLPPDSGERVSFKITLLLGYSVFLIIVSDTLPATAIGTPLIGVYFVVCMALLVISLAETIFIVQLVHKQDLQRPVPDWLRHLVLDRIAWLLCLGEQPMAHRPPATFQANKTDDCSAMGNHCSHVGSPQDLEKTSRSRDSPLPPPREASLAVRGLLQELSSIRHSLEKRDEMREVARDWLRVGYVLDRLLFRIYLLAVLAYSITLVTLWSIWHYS
The assay is described as follows: Radioligand displacement, 5-HT3 receptors, [3H]LY 278584. It counts as binding. The following applies: [3H]LY 278584, rat cerebral cortex; read-out: Ki ± E.E. 5-HT3.

A further assay has as its target T3, 5-HT4 receptors (Rattus norvegicus, UniProt Q62758).
T3 construct: (d) 5-HT4 receptors, [^3H]GR 113808, rat striatum; from tissue; host or cells: rat striatum
The assay is described as follows: Radioligand displacement, 5-HT4 receptors, [3H]GR 113808. The following applies: [3H]GR 113808, rat striatum; read-out: Ki ± E.E. 5-HT4. It counts as binding.

The target in another assay is T4, D2 receptors (Rattus norvegicus, UniProt P61169).
T4 construct: (g) D2 receptors, [^3H]spiperone, rat striatum; from tissue; host or cells: rat striatum
T4 sequence (P61169 whole entry): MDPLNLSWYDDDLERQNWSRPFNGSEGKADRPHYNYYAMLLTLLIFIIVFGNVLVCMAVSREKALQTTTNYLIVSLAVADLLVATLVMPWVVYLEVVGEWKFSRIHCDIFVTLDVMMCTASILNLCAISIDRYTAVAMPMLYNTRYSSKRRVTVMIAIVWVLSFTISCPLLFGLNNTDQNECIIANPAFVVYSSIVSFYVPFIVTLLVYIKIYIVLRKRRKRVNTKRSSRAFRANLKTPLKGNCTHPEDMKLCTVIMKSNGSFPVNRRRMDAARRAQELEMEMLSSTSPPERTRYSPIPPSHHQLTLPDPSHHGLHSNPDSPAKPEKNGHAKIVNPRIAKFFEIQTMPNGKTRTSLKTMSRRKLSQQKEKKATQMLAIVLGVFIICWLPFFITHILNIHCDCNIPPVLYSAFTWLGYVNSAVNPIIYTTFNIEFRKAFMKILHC
The assay can be described thus: Radioligand displacement, D2 receptors, [3H]spiperone. It counts as binding. The following applies: rat striatum, read-out: Ki ± E.E. D2.

In the next assay the target is T5, 5-human HT1A receptor (Homo sapiens, UniProt P08908).
T5 construct: expressed in transfected cells; host or cells: HeLa cells
T5 sequence (P08908 1-422): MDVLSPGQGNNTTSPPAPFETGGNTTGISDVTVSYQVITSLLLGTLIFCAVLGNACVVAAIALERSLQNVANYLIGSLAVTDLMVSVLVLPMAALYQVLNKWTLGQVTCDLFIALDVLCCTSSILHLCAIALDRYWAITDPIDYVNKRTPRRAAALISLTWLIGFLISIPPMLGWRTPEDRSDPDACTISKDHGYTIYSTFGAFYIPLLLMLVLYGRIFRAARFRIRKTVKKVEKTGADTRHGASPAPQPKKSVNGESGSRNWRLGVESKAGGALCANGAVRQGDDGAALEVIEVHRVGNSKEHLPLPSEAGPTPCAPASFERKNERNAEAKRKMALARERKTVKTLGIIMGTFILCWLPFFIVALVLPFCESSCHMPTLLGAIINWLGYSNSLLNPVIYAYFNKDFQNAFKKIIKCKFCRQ
The assay is described as follows: Test on adenylate cyclase in He-La cells (inhibition of forskolin stimulation). It counts as cell-based. The following applies: for EC50: inhibition of forskolin-stimulated adenylate cyclase, He-La cells transfected with 5-HT1A, read-out: CE50 (the source's name); for % Maximum inhibition: inhibition of the activation induced by forskolin. From the text: The functional character of the new compounds was initially determined by studying their effect on adenylate cyclase in He—La cells transfected with the […], measuring their inhibiting effect on the stimulation of the enzyme induced by forskolin (Table 3 below).

Assay [1] concerns neurons of the hippocampal area CA1. The assay is described as follows: Hyperpolarization of neurons of the hippocampal area CA1. Format: cell-based. The following applies: dose-effect curves.
In assay [2] the target is T6, 5-HT1A (Rattus norvegicus, UniProt P19327).
T6 sequence (P19327 1-422): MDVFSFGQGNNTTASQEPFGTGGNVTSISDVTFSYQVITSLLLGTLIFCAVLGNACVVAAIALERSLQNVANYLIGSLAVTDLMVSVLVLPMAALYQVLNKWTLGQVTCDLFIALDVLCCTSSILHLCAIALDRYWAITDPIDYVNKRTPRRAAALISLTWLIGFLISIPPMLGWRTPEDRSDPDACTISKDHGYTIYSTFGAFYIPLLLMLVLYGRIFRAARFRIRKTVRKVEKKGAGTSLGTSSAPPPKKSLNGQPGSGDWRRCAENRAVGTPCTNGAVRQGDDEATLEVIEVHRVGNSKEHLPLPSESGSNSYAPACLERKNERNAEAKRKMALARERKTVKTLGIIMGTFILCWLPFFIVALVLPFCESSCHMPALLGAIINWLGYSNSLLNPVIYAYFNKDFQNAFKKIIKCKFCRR
The assay can be described thus: Radioligand displacement, 5-HT1A receptors, [3H]-8-OH-DPAT. More on the design: (a) 5-HT1A receptors, [^3H]-8-OH-DPAT, rat cerebral cortex; from tissue; host or cells: rat cerebral cortex. It counts as binding. The following applies: rat cerebral cortex, read-out: Ki ± E.E. 5-HT1A.

Assay [3] addresses T6, 5-HT1A. The assay is described as follows: [35S]-GTPγS fixation test to coronal sections of rat brain. Format: biochemical. The arrangement: fixation test of [^35S]-GTPγS to coronal sections of rat brain; from tissue; host or cells: coronal sections of rat brain. The following applies: 10 μM. Here is the method:
The in vitro agonist character of the new compounds was also evaluated in some cases by the fixation test of [^35S]-GTPγS to coronal sections of rat brain.
On the technique in general: GTPγS resists hydrolysis and so accumulates on activated G proteins.

A further assay deals with T7, 5-HT7 receptors (Rattus norvegicus, UniProt P32305).
T7 construct: (e) 5-HT7 receptors, [^3H]-5-CT, rat hypothalamus; from tissue; host or cells: rat hypothalamus
T7 sequence (P32305 whole entry): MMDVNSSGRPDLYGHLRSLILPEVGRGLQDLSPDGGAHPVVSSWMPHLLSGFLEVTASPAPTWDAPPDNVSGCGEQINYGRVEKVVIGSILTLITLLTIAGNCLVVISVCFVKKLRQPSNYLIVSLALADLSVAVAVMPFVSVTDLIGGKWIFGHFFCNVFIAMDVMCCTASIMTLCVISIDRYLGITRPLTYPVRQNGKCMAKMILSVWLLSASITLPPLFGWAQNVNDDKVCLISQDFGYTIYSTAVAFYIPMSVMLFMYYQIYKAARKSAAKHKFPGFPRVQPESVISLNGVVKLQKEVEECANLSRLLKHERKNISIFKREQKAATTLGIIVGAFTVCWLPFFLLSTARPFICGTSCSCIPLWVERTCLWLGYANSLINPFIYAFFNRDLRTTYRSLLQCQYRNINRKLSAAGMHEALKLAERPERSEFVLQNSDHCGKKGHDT
The assay is described as follows: Radioligand displacement, 5-HT7 receptors, [3H]-5-CT. Format: binding. The following applies: [3H]-5-CT, rat hypothalamus; read-out: Ki ± E.E. 5-HT7.

A further assay deals with α1 receptors. The assay can be described thus: Radioligand displacement, α1 receptors, [3H]prazosin. Format: binding. The following applies: rat cerebral cortex, read-out: Ki ± E.E. α1.
In assay [4] the test system is 5-HT1A. The assay is described as follows: Mouse hypothermia test. Format: in vivo. From the text:
All compounds previously characterized in vitro as 5-HT1A agonists (Table 3) were delivered by subcutaneous injection to mice in order to quantify the hypothermia associated to stimulation of this serotonergic receptor subtype.

A further assay has as its system hippocampal area CA1. The assay is described as follows: Transient global ischemia model in gerbils. The following applies: gerbil, 1-5 mg/kg s.c., 30 min before and 24 and 48 h after ischemia. It counts as in vivo. From the text:
In the transient ischemia model in gerbils induced by temporary occlusion of both carotid arteries, the delivery of compounds no.

Assay [5] concerns primary cultures of rat hippocampus. The assay can be described thus: Apoptotic neuronal death induced by serum deprivation. The following applies: 24 hours without serum; compared with compound no. 1.
Description: The neuroprotective effect of the compounds considered was studied in experimental models in vitro, using primary cultures of rat hippocampus exposed to serum deprivation, to a toxic concentration of glutamate, or incubated in conditions of hypoxia and absence of glucose.

T3 sequence (Q62758 whole entry): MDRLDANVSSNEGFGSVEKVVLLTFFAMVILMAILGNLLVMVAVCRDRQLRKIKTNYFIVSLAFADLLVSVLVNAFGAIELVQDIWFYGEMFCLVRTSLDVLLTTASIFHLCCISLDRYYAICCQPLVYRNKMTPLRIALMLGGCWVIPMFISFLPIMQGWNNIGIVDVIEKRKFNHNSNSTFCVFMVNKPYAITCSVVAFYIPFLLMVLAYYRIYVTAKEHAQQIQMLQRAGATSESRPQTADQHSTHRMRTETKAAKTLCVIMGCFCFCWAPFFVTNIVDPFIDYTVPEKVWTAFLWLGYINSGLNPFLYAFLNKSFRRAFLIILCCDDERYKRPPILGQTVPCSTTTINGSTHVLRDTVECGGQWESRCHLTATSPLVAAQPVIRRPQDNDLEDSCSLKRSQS
T1 sequence (P14842 whole entry): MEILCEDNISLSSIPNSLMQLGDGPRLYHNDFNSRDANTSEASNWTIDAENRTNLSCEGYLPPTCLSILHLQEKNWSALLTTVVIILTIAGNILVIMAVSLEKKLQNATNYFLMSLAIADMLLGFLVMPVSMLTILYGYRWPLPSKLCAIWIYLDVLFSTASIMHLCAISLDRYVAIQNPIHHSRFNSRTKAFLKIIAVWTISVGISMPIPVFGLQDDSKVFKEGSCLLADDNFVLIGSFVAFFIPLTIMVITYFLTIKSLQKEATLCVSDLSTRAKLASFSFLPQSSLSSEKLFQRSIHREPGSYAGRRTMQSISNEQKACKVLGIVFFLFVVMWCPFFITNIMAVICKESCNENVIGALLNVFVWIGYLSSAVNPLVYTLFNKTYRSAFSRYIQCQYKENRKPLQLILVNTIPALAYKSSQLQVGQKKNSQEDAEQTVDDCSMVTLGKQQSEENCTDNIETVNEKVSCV

On to `O=C1C2SCCN2C(=O)N1CCCCNCC1CCc2ccccc2O1` (racemic) [Compound 2, (±)-2-[4-[(Chroman-2-yl)methylamine]butyl]-1,3-dioxoperhydroimidazo[1,5-b]thiazol], for which the Ki at 5-HT2A receptors is greater than 1 µM; at 5-HT3 receptors, greater than 10 µM; at 5-HT4 receptors, greater than 10 µM; on D2 receptors it was greater than 10 µM; at 5-HT1A [2], 0.0199 ± 0.006 µM. In addition, the EC50 at 5-human HT1A receptor amounted to 0.0189 µM. The “% Maximum inhibition” value on 5-human HT1A receptor is 94.5%. Moreover, in [1], the “Potency in hyperpolarization test compared with 8-OH-DPAT” value was “indistinguishable in potency to that of the 5-HT1A, 8-OH-DPAT type agonist”.
Consider `O=C1C2CSCN2C(=O)N1CCCCNCC1CCc2ccccc2O1` (racemic) [Compound 3, (±)-2-[4-[(Chroman-2-yl)methylamine]butyl]-1,3-dioxoperhydroimidazo[1,5-c]-thiazol], for which, at 5-human HT1A receptor, the EC50 worked out at 0.0315 µM and the “% Maximum inhibition” value stood at 89.3%. Further, the Ki at 5-HT1A [2] amounted to 0.0132 ± 0.001 µM. In addition, the “[35S]-GTPγS fixation compared with 8-OH-DPAT” value on 5-HT1A [3] is “especially similar to those obtained with the 5-HT1A, 8-OH-DPAT agonist prototype”.
As for `O=C1CSC(=O)N1CCCCNCC1CCc2ccccc2O1` (racemic) [Compound 4, (±)-3-[4-[(Chroman-2-yl)methylamine]butyl]-2,4-dioxothiazolidin], on 5-human HT1A receptor, the EC50 came to 0.0116 µM and the “% Maximum inhibition” value is on record as 89.6%. Further, the Ki on 5-HT1A [2] came to 0.0301 ± 0.0006 µM.
As to `O=C1C2CCCN2C(=O)N1CCCCNCCOc1ccccc1` (stereo not shown) [Compound 12, 2-[4-[2-(Phenoxy)ethylamine]butyl]-1,3-dioxoperhydropyrrolo[1,2-c]imidazol], the Ki on 5-HT2A receptors is greater than 10 µM; at 5-HT3 receptors, greater than 1 µM; at 5-HT4 receptors it was greater than 10 µM; on 5-HT7 receptors, greater than 1 µM; on α1 receptors it was greater than 1 µM; at D2 receptors it was greater than 1 µM. At 5-HT1A [2], the Ki was determined as 0.0255 ± 0.0009 µM. Also, the EC50 at 5-human HT1A receptor was 0.0762 µM. In addition, the “% Maximum inhibition” value at 5-human HT1A receptor is 87.4%. Besides, in the assay on 5-HT1A [4] (subcutaneous injection, rectal temperature), the Minimum effective dosage was found to be 2.5 mg/kg. Further, in the assay on 5-HT1A [4] (subcutaneous, at minimum effective dose), the Hypothermic effect was 1.4 °C. Further, in the assay on hippocampal area CA1, the “Prevention of ischemic injury in hippocampal area CA1 (Nissl stain)” value is on record as “significantly prevented the injury”. In addition, the “Neuroprotective effect in serum deprivation” value in [5] is reported as “the degree of protection was somewhat below”.

For the origin of these results see patent US7351732B2, “Cycloalkanedione derivatives, method for the production thereof and their pharmacological applications” (Schwarz Pharma S.L., priority 2002, dated 2008).
